From US8951963B2, “Active cores of peptide triazole HIV-1 entry inhibitors” (priority 2009, dated 2015)
Entries after “also recorded” stand apart in the source; their conditions may differ. Read-outs that look alike come from different tables or passages of the source. *1 amine or outer side, *2 acyl side, *3 side chain or, on linkers, in order; H or OH if unused. Where a SMILES comes first, the peptide text is derived from it. [ ]: non-standard residue; d: D form. X1 = O=C([C@@H]1C[C@H](n2cc([C]34[CH]5[CH]6[CH]7[CH]3[Fe]6754389%10[CH]4[CH]3[CH]8[CH]9[CH]4%10)nn2)CN1[*:1])[*:2]; Cit = NC(=O)NCCC[C@H](N)C(=O)O

Assays:
P4-CCR5 cells [1] = assay: In vitro cytotoxicity, MTT assay; format: cell-based; details: concentrations as high as 0.1 mg/ml
Description: (§1) P4-CCR5 cells were seeded at a density of 4×10^4 cells/well in a 96 well plate approximately 18 hours prior to experiment. […] The cells were subsequently washed and assessed for viability using a 3-(4,5-dimethylthiazol-2-yl)-2,5-diphenyltetrazolium bromide (MTT) assay of viability (previously described in Krebs et al. (1999). Concentrations were tested in triplicate in two independent assays.

[2] = In vitro cytotoxicity, MTT assay; format: cell-based; details: human; P4-CCR5 cells, 2 hours, MTT
Description: as §1

mAb 17b = assay: SPR control: direct binding of peptide to mAb 17b surface; details: SPR control experiment
[3] = test system: viruses pseudotyped with the VSV-G envelope; format: cell-based
Pseudotyped HIV-1BaL = format: cell-based; details: Table 12; HOS.CD4.CCR5 cells, 48 hours; NA = not active; read-out: IC50 (antiviral)
sCD4 = biological target: T1, sCD4 (Homo sapiens, UniProt P01730); assay: SPR control: direct binding of peptide to sCD4 surface; details: SPR control experiment
T1 construct: soluble four domain CD4 (sCD4); made in house; host or cells: CHO cells

[4] = biological target: T2, HIV-1YU-2 gp120 binding to sCD4 (Human immunodeficiency virus type 1 group M subtype B, UniProt P35961); details: Table 12; 100 nM gp120; NA = not active
T2 construct: made in house; host or cells: Drosophila S2 cells (gp120); CHO cells (sCD4)
Description: (§2) Where Rhigh is the response value at high inhibitor concentrations and Rlow is response at low inhibitor concentrations. Cone is the concentration of inhibitor, and A1 and A2 are fitting parameters. At IC50 the following is true:
(§3) Under this condition, A1=Conc and is therefore taken as the desired so parameter.

[5] = biological target: T3, HIV-1YU-2 gp120 binding to mAb 17b (Human immunodeficiency virus type 1 group M subtype B, UniProt P35961); details: Table 12; 100 nM gp120; NA = not active
T3 construct: made in house; host or cells: Drosophila S2 cells (gp120)
Description: as §2, §3

HIV-1 YU2 gp120 [6] = biological target: T4, HIV-1 YU2 gp120 (Human immunodeficiency virus type 1 group M subtype B, UniProt P35961); format: binding; details: for dissociation rate constant (koff): Table 11, dissociation rate
T4 construct: made in house; host or cells: Drosophila S2 cells
Description: Surface plasmon resonance (SPR) interaction analyses were performed on a Biacore® 3000 optical biosensor (GE). All experiments were carried out at 25° C. using standard PBS, pH 7.4, with 0.005% Surfactant P20.
Regeneration of the surface was achieved by a one 5-second pulse of 10 mM glycine, pH 1.5.
SPR data analyses were performed using BIAEvaluation 4.0 software (GE). […] Experimental data were fitted to a simple 1:1 binding model with a parameter included for mass transport. […] The inhibition curve was converted into a calibration curve by the use of a fitting function. The fitting was done using the 4-parameter equation in BIAevaluation software: […]

gp120 = biological target: T5, gp120 (Human immunodeficiency virus type 1 group M subtype B, UniProt P35961); format: binding, HIV-1; details: ITC, 25° C., PBS pH 7.4
T5 construct: made in house; host or cells: Drosophila S2 cells
Description: FIGS. 14A-14D are a series of graphs of calorimetric titration data of gp120 with various peptides. […] Data was obtained as 25° C. in PBS, pH 7.4. Experiments in FIGS. 14A and 14B were carried out using a VP-ITC, where 2 μM gp120 in the calorimetric cell (˜1.4 mL) was titrated with 10 μL aliquots of peptide at concentration of 30 μM.
Isothermal titration calorimetric experiments were performed using high-precision calorimetric systems of model VP-ITC or ITC20 from MicroCal Inc. The titrations were performed by stepwise addition of peptide to gp120 contained in the calorimetric cell at a constant temperature of 25° C. […] For the experiments carried out in the VP-ITC the concentration of gp120 was about 2 μM and the syringe contained the peptide at a concentration about 30 μM. For the experiment carried out using ITC20 gp120 was prepared at about 4 μM and the peptide at 50-100 μM. The solutions contained within the calorimetric cells and injector syringes were prepared in PBS, pH 7.4 and thoroughly degassed to avoid bubble formation in the calorimetric cell. The heat evolved upon each injection of the peptide solution was obtained from the integral of the calorimetric signal. The heat associated with binding of a ligand to the protein in the cell was obtained by subtracting the heat of dilution from the heat of reaction.

HIV-1 YU2 gp120 [7] = biological target: T4, HIV-1 YU2 gp120; assay: biochemical; format: binding; details: Kd (affinity) for HIV-1 YU2 gp120 as measured by SPR
Description: All surface plasmon resonance experiments (SPR) were performed on a BIA3000 optical biosensor (Biocore, Inc., Uppsala, Sweden). […] For direct binding experiments, YU2 gp120 was immobilized on the surface (˜4000 RU); peptide analytes in PBS buffer were passed over the surface at a flow rate of 50 μL/min, with 5 minute association phase and 5 minute dissociation phase. […] The indicated analytes were passed over the surfaces at a flow rate of 50 μL/minute, with 2.5 minute association phase and 2.5 minute dissociation phase.
Data analysis was performed using BIAEvaluation® 4.0 software (Biacore Inc., NJ). The responses of a buffer injection and responses from the control surface to which the mAb 2B6R was immobilized, were subtracted to account for nonspecific binding. Experimental data were fitted to a simple 1:1 Langmuir binding model with a parameter included for mass transport. The average kinetic parameters (association [ka] and dissociation [kd] rates) generated from a minimum of four datasets were used to define equilibrium association (KA) and dissociation constants (KD).

HIV-1 strain BaL [8] = details: P4-CCR5 cells; Gopi et al., 2008; read-out: IC50, inhibition of infection by HIV-1 BaL; cited from earlier work
P4-CCR5 cells [9] = details: at concentrations corresponding to IC50 values; Gopi et al., 2008; cited from earlier work
HIV-1 strain BaL [10] = assay: Combination of HNG-156 and cyanovirin-N, HIV-1 BaL infection of P4-CCR5 cells; format: cell-based
HIV-1 strain BaL [11] = assay: Inhibition of HIV-1 infection, whole virus assay in P4-CCR5 cells; format: cell-based; details: result of one trial

Row | Compound | IC50 (Pseudotyped HIV-1BaL) [µM] | dissociation rate constant (koff) (HIV-1 YU2 gp120 [6]) | ΔH (gp120) [kcal/mol] | −TΔS (gp120) | IC50 (HIV-1 strain BaL [8]) [µM] | impact on cell viability (P4-CCR5 cells [9]) | other results
1 | CC[C@H](C)[C@H](NC(=O)[C@@H](N)CCCNC(=N)N)C(=O)N[C@@H](CC(N)=O)C(=O)N[C@@H](CC(N)=O)C(=O)N[C@H](C(=O)N1C[C@@H](n2cc([C]34[CH]5[CH]6[CH]7[CH]3[Fe]6754389%10[CH]4[CH]3[CH]8[CH]9[CH]4%10)nn2)C[C@H]1C(=O)N[C@@H](Cc1c[nH]c2ccccc12)C(=O)N[C@@H](CO)C(=O)N[C@@H](CCC(=O)O)C(=O)N[C@@H](C)C(=O)N[C@@H](CCSC)C(=O)N[C@@H](CCSC)C(N)=O)[C@@H](C)CC (stereo partly shown) [HNG-156] |  |  |  |  |  |  | effect on P4-CCR5 cell viability (P4-CCR5 cells [1]): no effect; CC50 at 2 h [2]: > 59 µM
2 | CSCC[C@H](NC(=O)[C@H](CCSC)NC(=O)[C@H](C)NC(=O)[C@H](CCC(=O)O)NC(=O)[C@H](CO)NC(=O)[C@H](Cc1c[nH]c2ccccc12)NC(=O)[C@@H]1C[C@H](n2cc([C]34[CH]5[CH]6[CH]7[CH]3[Fe]6754389%10[CH]4[CH]3[CH]8[CH]9[CH]4%10)nn2)CN1)C(N)=O (stereo partly shown) [UM10] (H-[X1]WSEAMM-NH2; N-terminus and C-terminus assumed) | 35 ± 15 | 8.90E−04 ± 1.2 1/S |  |  |  |  | direct binding to 17b (mAb 17b): neither UM10 nor UM12 exhibited direct binding; inhibition of negative control viruses pseudotyped with the VSV envelope [3]: Neither of these conjugates inhibited; direct binding to sCD4 (sCD4): neither UM10 nor UM12 exhibited direct binding; sCD4 (IC50) [4]: unable to inhibit; also recorded: no IC50 value could be calculated; mAb 17b (IC50) [5]: unable to inhibit; affinity relative to 12 mer peptide of HNG-156 (HIV-1 YU2 gp120 [6]; lower affinity): 100 fold
3 | CC[C@H](C)[C@H](NC(=O)[C@@H](N)CCCNC(=N)N)C(=O)N[C@@H](CC(N)=O)C(=O)N[C@@H](CC(N)=O)C(=O)N[C@H](C(=O)N1C[C@@H](n2cc([C]34[CH]5[CH]6[CH]7[CH]3[Fe]6754389%10[CH]4[CH]3[CH]8[CH]9[CH]4%10)nn2)C[C@H]1C(=O)N[C@@H](Cc1c[nH]c2ccccc12)C(N)=O)[C@@H](C)CC (stereo partly shown) [UM12] (H-RINNI[X1]W-NH2; N-terminus and C-terminus assumed) | 6.8 ± 0.3 | 1.8E−03 ± 1.3 1/S | -19.7 | +9.9 kcal/mol |  |  | direct binding to 17b (mAb 17b): neither UM10 nor UM12 exhibited direct binding; inhibition of negative control viruses pseudotyped with the VSV envelope [3]: Neither of these conjugates inhibited; direct binding to sCD4 (sCD4): neither UM10 nor UM12 exhibited direct binding
4 | CC[C@H](C)[C@H](NC(=O)[C@@H](N)CCC(=O)O)C(=O)N[C@@H](CC(N)=O)C(=O)N[C@@H](CC(N)=O)C(=O)N[C@H](C(=O)N1C[C@@H](n2cc([C]34[CH]5[CH]6[CH]7[CH]3[Fe]6754389%10[CH]4[CH]3[CH]8[CH]9[CH]4%10)nn2)C[C@H]1C(=O)N[C@@H](Cc1c[nH]c2ccccc12)C(=O)N[C@@H](CO)C(N)=O)[C@@H](C)CC (stereo partly shown) [UM13] (H-EINNI[X1]WS-NH2; N-terminus and C-terminus assumed) | 1.2 ± 0.3 | 3.1E−03 ± 2 1/S |  |  |  |  | 
5 | CC[C@H](C)[C@H](NC(=O)[C@H](CC(N)=O)NC(=O)[C@@H](N)CC(N)=O)C(=O)N1C[C@@H](n2cc([C]34[CH]5[CH]6[CH]7[CH]3[Fe]6754389%10[CH]4[CH]3[CH]8[CH]9[CH]4%10)nn2)C[C@H]1C(=O)N[C@@H](Cc1c[nH]c2ccccc12)C(N)=O (stereo partly shown) [UM17] (H-NNI[X1]W-NH2) | 33 ± 11 | 6.0E−03 ± 1.25 1/S | -13.2 | +3.3 kcal/mol |  |  | 
6 | CC[C@H](C)[C@H](NC(=O)[C@H](CC(N)=O)NC(=O)[C@H](CC(N)=O)NC(=O)[C@@H](N)CCCNC(N)=O)C(=O)N1C[C@@H](n2cc([C]34[CH]5[CH]6[CH]7[CH]3[Fe]6754389%10[CH]4[CH]3[CH]8[CH]9[CH]4%10)nn2)C[C@H]1C(=O)N[C@@H](Cc1c[nH]c2ccccc12)C(=O)N[C@@H](CO)C(N)=O (stereo partly shown) [UM24] (H-[Cit]NNI[X1]WS-NH2; N-terminus and C-terminus assumed) |  | 2.9E−03 ± 1.2 1/S | -16.7 | +6.3 kcal/mol |  |  | Kd (HIV-1 YU2 gp120 [7]): ~0.021 µM
7 | RINNIPWSEAMM [HNG-113] |  |  |  |  | 0.156 | no or minimal impact | synergy with CV-N (HIV-1 strain BaL [10]): does not synergize
8 | RINNIPWSEAMM [HNG-124] |  |  |  |  | 0.418 | no or minimal impact | 
9 | RINNIPWSEAMM [HNG-137] |  |  |  |  | 0.61 | no or minimal impact | 
10 | dextran sulfate |  |  |  |  |  |  | IC50 (HIV-1 strain BaL [11]): 9.8 µM; IC50, inhibition of infection by HIV-1 BaL (HIV-1 strain BaL [11]): 4.9 µg/mL; Viral infectivity inhibition IC50 (HIV-1 strain BaL [10]; agent alone): 0.900 microgram/milliliter
